Test results reported in patent US20070191453A1, “USE OF BENZO-HETEROARYL SULFAMIDE DERIVATIVES FOR THE TREATMENT OF SUBSTANCE ABUSE AND ADDICTION” (priority 2006, published 2007).

System: selectively-bred alcohol preferring rats
Experiment: Alcohol Preferring Rats In Vivo Model (two-bottle choice)
Set-up: species or system rat
Settings: for 6 hr Preference (alcohol preference) / 6 hr Ethanol (alcohol intake) / 24 hr Ethanol (alcohol intake) / 24 hr Preference (alcohol preference): mean ± SEM; for 6 hr Ethanol (alcohol intake): 6 h after treatment
Procedure: Adult male selectively-bred alcohol preferring rats (which are known in the art to be useful for the study of the effect of test compounds on voluntary alcohol intake) were grouped into three groups: vehicle and Compound #1 (50 and 100 mg/kg, p.o.). Rats were housed individually in wire mesh cages under a constant room temperature of 22±1° C. and 12:12 light-dark cycle (8:00-20:00, dark). The animals were fed Agway Prolab Rat/Mouse/Hamster 3000 formula and water ad libitum.
Alcohol intake was determined using the standard two-bottle choice method. Animals were first given free access to water in a graduated Richter tube for 2 days. Then they were given access to only a solution of 10% (v/v) ethanol for 3 consecutive days. During this period animals became accustomed to drinking from Richter tubes and to the taste and pharmacological effects of alcohol. Thereafter, they were given free access to both water and a solution of 10% alcohol for at least 4 consecutive weeks and throughout the study period. Rats had free access to food. Water and alcohol intake were recorded at 4, 6 and 24 hours after the treatment, whereas food intake was measured at 24 hour. Animals' body weight was measured every day.
After establishment of a stable baseline for alcohol, food, and water intake, rats were administered either vehicle or Compound #1 via oral gavage using a cross-over design with random assignment. To be able to compare the efficacy of these compounds on alcohol intake with an established FDA-approved drug, naltrexone, was included as a positive control. Same rats were given an oral dose of naltrexone (20 mg/kg). The interval between treatments was at least 3 days. Alcohol and water intake were recorded 4, 6 and 24 h after the drug administration and food intake was recorded at 24 hr. A total of 8-10 animals per group were used.
The results below are presented as means±SEM. Alcohol intake (g/kg) was calculated by multiplying the volume of alcohol consumed in ml by 10% and 0.7893 (ethanol density)/body weight in kg. Alcohol preference, expressed as percentage, was calculated as follows: (volume of alcohol consumed in ml/total fluid intake in ml)×100 (Rezvani and Grady, 1994; Rezvani et al., 1997). Statistical differences between drug-treated and control groups were determined by using ANOVA and Tukey Student's t test for multiple comparison.

## NS(=O)(=O)NCc1csc2ccccc12 [Compound #1, N-(benzo[b]thien-3-ylmethyl)-sulfamide]
50 mg/kg p.o.
  6 hr Preference (alcohol preference): 71 ± 11%
  6 hr Ethanol (alcohol intake): 1.06 ± 0.25 g/kg
  24 hr Ethanol (alcohol intake): 4.48 ± 0.62 g/kg
  24 hr Preference (alcohol preference): 74 ± 9%
100 mg/kg p.o.
  6 hr Preference (alcohol preference): 67 ± 11%
  6 hr Ethanol (alcohol intake): 0.79 ± 0.24 g/kg
  24 hr Ethanol (alcohol intake): 4.08 ± 0.71 g/kg
  24 hr Preference (alcohol preference): 79 ± 9%
100 mg/kg vs naltrexone 20 mg/kg
  duration of reduction in ethanol consumption compared with naltrexone (in words): longer lasting than naltrexone
At 6 h (50 and 100 mg/kg; p<0.05) and 24 h (100 mg/kg; p<0.05) post-dosing
  effect on ethanol consumption (in words): decreased ethanol consumption

## O=C1CC[C@@]2(O)[C@H]3Cc4ccc(O)c5c4[C@@]2(CCN3CC2CC2)[C@H]1O5 [Naltrexone, naltrexone, reference compound]
Naltrexone 20 mg/kg oral
  6 hr Preference (alcohol preference): 64 ± 12%
  6 hr Ethanol (alcohol intake): 0.77 ± 0.24 g/kg
  24 hr Ethanol (alcohol intake): 4.48 ± 0.57 g/kg
  24 hr Preference (alcohol preference): 76 ± 9%
